Test results from PubChem BioAssay (NCI).
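Interpolation was linear, between the two tested concentrations surrounding the appropriate level; five concentrations were tested over 48 hours in 96-well plates. Definition used: TGI = concentration required for complete inhibition of growth.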

What was measured:
Assay in all cases: NCI anticancer screen, dose series, 48 h
IGROV1 ovarian = system: IGROV1 ovarian
NCI-H460 lung = system: NCI-H460 lung
MDA-MB-435 = system: MDA-MB-435
SK-MEL-2 melanoma = system: SK-MEL-2 melanoma
OVCAR-5 ovarian = system: OVCAR-5 ovarian
HCT-15 colon = system: HCT-15 colon
CAKI-1 renal = system: CAKI-1 renal
MALME-3M melanoma = system: MALME-3M melanoma
SF-268 CNS = system: SF-268 CNS
OVCAR-3 ovarian = system: OVCAR-3 ovarian
HOP-92 NSCLC = system: HOP-92 NSCLC
M14 melanoma = system: M14 melanoma
MCF7 breast = system: MCF7 breast
UACC-62 melanoma = system: UACC-62 melanoma
SNB-19 CNS = system: SNB-19 CNS
T-47D breast = system: T-47D breast
DU-145 prostate = system: DU-145 prostate
ACHN renal = system: ACHN renal
LOX IMVI melanoma = system: LOX IMVI melanoma
SK-MEL-28 melanoma = system: SK-MEL-28 melanoma
A549 NSCLC = system: A549 NSCLC
SF-295 CNS = system: SF-295 CNS
NCI-H522 lung = system: NCI-H522 lung
OVCAR-4 ovarian = system: OVCAR-4 ovarian
NCI-H23 lung = system: NCI-H23 lung
MDA-MB-231 breast = system: MDA-MB-231 breast
OVCAR-8 ovarian = system: OVCAR-8 ovarian
NCI/ADR-RES ovarian = system: NCI/ADR-RES ovarian
TK-10 renal = system: TK-10 renal
UACC-257 melanoma = system: UACC-257 melanoma
SK-OV-3 ovarian = system: SK-OV-3 ovarian
HS 578T breast = system: HS 578T breast
BT-549 breast = system: BT-549 breast
HT29 colon = system: HT29 colon
MDA-N = system: MDA-N
A498 renal = system: A498 renal
HOP-62 NSCLC = system: HOP-62 NSCLC
SN12C renal = system: SN12C renal
CCRF-CEM leukemia = system: CCRF-CEM leukemia
PC-3 prostate = system: PC-3 prostate
UO-31 renal = system: UO-31 renal
COLO 205 colon = system: COLO 205 colon
SNB-75 CNS = system: SNB-75 CNS
SK-MEL-5 melanoma = system: SK-MEL-5 melanoma
MOLT-4 leukemia = system: MOLT-4 leukemia
SW-620 colon = system: SW-620 colon
HL-60(TB) leukemia = system: HL-60(TB) leukemia
SR leukemia = system: SR leukemia
K-562 leukemia = system: K-562 leukemia
U251 CNS = system: U251 CNS
SF-539 CNS = system: SF-539 CNS
KM12 colon = system: KM12 colon
RPMI-8226 leukemia = system: RPMI-8226 leukemia

SMILES: O=C(Cc1nc2cccnc2nc1/C=C(\O)c1ccccc1)c1ccccc1
- TGI (IGROV1 ovarian): > 100 µM
- TGI (NCI-H460 lung): 22.7 µM
- TGI (MDA-MB-435): 82 µM
- TGI (SK-MEL-2 melanoma): 65.4 µM
- TGI (OVCAR-5 ovarian): > 100 µM
- TGI (HCT-15 colon): > 100 µM
- TGI (CAKI-1 renal): 30.5 µM
- TGI (MALME-3M melanoma): > 100 µM
- TGI (SF-268 CNS): 46 µM
- TGI (OVCAR-3 ovarian): 13.3 µM
- TGI (HOP-92 NSCLC): 59 µM
- TGI (M14 melanoma): > 100 µM
- TGI (MCF7 breast): 27.6 µM
- TGI (UACC-62 melanoma): 18.6 µM
- TGI (SNB-19 CNS): > 100 µM
- TGI (T-47D breast): > 100 µM
- TGI (DU-145 prostate): > 100 µM
- TGI (ACHN renal): > 100 µM
- TGI (LOX IMVI melanoma): 87 µM
- TGI (SK-MEL-28 melanoma): > 100 µM
- TGI (A549 NSCLC): > 100 µM
- TGI (SF-295 CNS): 82.1 µM
- TGI (NCI-H522 lung): 35.6 µM
- TGI (OVCAR-4 ovarian): > 100 µM
- TGI (NCI-H23 lung): > 100 µM
- TGI (MDA-MB-231 breast): > 100 µM
- TGI (OVCAR-8 ovarian): > 100 µM
- TGI (NCI/ADR-RES ovarian): > 100 µM
- TGI (TK-10 renal): > 100 µM
- TGI (UACC-257 melanoma): > 100 µM
- TGI (SK-OV-3 ovarian): > 100 µM
- TGI (HS 578T breast): > 100 µM
- TGI (BT-549 breast): 38.4 µM
- TGI (HT29 colon): > 100 µM
- TGI (MDA-N): > 100 µM
- TGI (A498 renal): 74 µM
- TGI (HOP-62 NSCLC): 58.4 µM
- TGI (SN12C renal): 59.1 µM
- TGI (CCRF-CEM leukemia): 29.9 µM
- TGI (PC-3 prostate): > 100 µM
- TGI (UO-31 renal): 79.6 µM
- TGI (COLO 205 colon): 25.1 µM
- TGI (SNB-75 CNS): 96.4 µM
- TGI (SK-MEL-5 melanoma): 38 µM
- TGI (MOLT-4 leukemia): > 100 µM
- TGI (SW-620 colon): > 100 µM
- TGI (HL-60(TB) leukemia): 66.6 µM
- TGI (SR leukemia): > 100 µM
- TGI (K-562 leukemia): > 100 µM
- TGI (U251 CNS): > 100 µM
- TGI (SF-539 CNS): > 100 µM
- TGI (KM12 colon): > 100 µM
- TGI (RPMI-8226 leukemia): 29 µM
